Reference: patent EP3714904B1, “IMINODIACETIC ACID SUBSTITUTED CYCLODEXTRINS AS POTENTIATORS OF BETA-LACTAM ANTIBIOTICS” (NATIONAL CENTER FOR SCIENTIFIC RESEARCH "DEMOKRITOS" (NCSRD), priority 2019, dated 2020)

Test system: Klebsiella pneumoniae
Experiment: MIC of β-lactams alone or with 50 µM IDACYD against clinical isolates
Type: cell-based
Method: Further the in-vitro inhibitory activity of IDACYDs was tested against highly resistant pathogens. […] Table 2: Collection of clinical isolates used for in-vitro evaluation

[1] = isolate LA-34 (VIM, CMY), first entry of Table 3
[2] = isolate LA-34 (VIM, CMY), second entry of Table 3
[3] = isolate LAR-26I/15 (NDM, VIM, CTXM)
[4] = isolate LAR-37II/15 (NDM, VIM, CTXM)
[5] = isolate LAR-38I/15 (VIM, NDM, CTXM)

CO[C@@H]1[C@@H](OC)[C@H]2O[C@H]3[C@H](OC)[C@@H](OC)[C@@H](O[C@H]4[C@H](OC)[C@@H](OC)[C@@H](O[C@H]5[C@H](OC)[C@@H](OC)[C@@H](O[C@H]6[C@H](OC)[C@@H](OC)[C@@H](O[C@H]7[C@H](OC)[C@@H](OC)[C@@H](O[C@H]8[C@H](OC)[C@@H](OC)[C@@H](O[C@@H]1[C@@H](CN(CC(=O)O)CC(=O)O)O2)O[C@@H]8CN(CC(=O)O)CC(=O)O)O[C@@H]7CN(CC(=O)O)CC(=O)O)O[C@@H]6CN(CC(=O)O)CC(=O)O)O[C@@H]5CN(CC(=O)O)CC(=O)O)O[C@@H]4CN(CC(=O)O)CC(=O)O)O[C@@H]3CN(CC(=O)O)CC(=O)O [β-IDACYD]
32 mg/L: Meropenem /50µM β-IDACYD MIC (isolate ESDY-1780 (VIM, KPC)) | Meropenem /50µM β-IDACYD MIC (isolate IT-17829 (CTXM, SHV)) | Ceftazidime/ 50µM β-IDACYD MIC (isolate LA-28 (NDM, CTXM)) | Ceftazidime/ 50µM β-IDACYD MIC (isolate LA-82/16 (VIM, SHV)) | Ceftazidime/ 50µM β-IDACYD MIC (isolate LA-109/16 (VIM, CTXM)) | Meropenem /50µM β-IDACYD MIC (isolate LA-470/17 (NDM))
2 mg/L: Imipenem /50µM β-IDACYD MIC (isolate EY-20S (CMY, SHV))
<0.25 mg/L: Meropenem /50µM β-IDACYD MIC (isolate 2685 (VIM, CMY, CTXM)) | Meropenem /50µM β-IDACYD MIC (isolate ESDY-2681 (VIM-27)) | Meropenem /50µM β-IDACYD MIC (isolate ESDY-5742 (IMP)) | Meropenem /50µM β-IDACYD MIC (isolate LA-26 (NDM)) | Meropenem /50µM β-IDACYD MIC (isolate LA-27 (NDM, CTXM)) | Meropenem /50µM β-IDACYD MIC (isolate LA-28 (NDM, CTXM)) | Meropenem /50µM β-IDACYD MIC (isolate LA-109/16 (VIM, CTXM)) | Meropenem /50µM β-IDACYD MIC (isolate LA-419/16 (NDM,CTXM)) | Meropenem /50µM β-IDACYD MIC [4] | Meropenem /50µM β-IDACYD MIC [5]
8 mg/L: Imipenem /50µM β-IDACYD MIC (isolate ESDY-1780 (VIM, KPC)) | Imipenem /50µM β-IDACYD MIC (isolate LA-470/17 (NDM))
4 mg/L: Imipenem /50µM β-IDACYD MIC (isolate ALX-47 (OXA-48,CTX-M)) | Meropenem /50µM β-IDACYD MIC (isolate ALX-47 (OXA-48,CTX-M)) | Meropenem /50µM β-IDACYD MIC (isolate EY-20S (CMY, SHV))
>256 mg/L: Ceftazidime/ 50µM β-IDACYD MIC (isolate ALX-47 (OXA-48,CTX-M))
1 mg/L: Imipenem /50µM β-IDACYD MIC (isolate 6/100 (VIM)) | Meropenem /50µM β-IDACYD MIC (isolate 6/100 (VIM)) | Meropenem /50µM β-IDACYD MIC (isolate 2489 (NDM)) | Ceftazidime/ 50µM β-IDACYD MIC (isolate ESDY-5742 (IMP))
<0.125 mg/L: Imipenem /50µM β-IDACYD MIC (isolate ESDY-2681 (VIM-27)) | Imipenem /50µM β-IDACYD MIC (isolate ESDY-5742 (IMP)) | Imipenem /50µM β-IDACYD MIC (isolate LA-26 (NDM)) | Imipenem /50µM β-IDACYD MIC (isolate LA-27 (NDM, CTXM)) | Imipenem /50µM β-IDACYD MIC (isolate LA-28 (NDM, CTXM)) | Imipenem /50µM β-IDACYD MIC (isolate LA-38 (NDM)) | Imipenem /50µM β-IDACYD MIC (isolate LA-82/16 (VIM, SHV)) | Imipenem /50µM β-IDACYD MIC (isolate LA-109/16 (VIM, CTXM)) | Imipenem /50µM β-IDACYD MIC (isolate LA-419/16 (NDM,CTXM)) | Imipenem /50µM β-IDACYD MIC [4] | Imipenem /50µM β-IDACYD MIC [5] | Imipenem /50µM β-IDACYD MIC (isolate LAR-2873 (VIM-12))
0.25 mg/L: Meropenem /50µM β-IDACYD MIC [1] | Imipenem /50µM β-IDACYD MIC [2] | Meropenem /50µM β-IDACYD MIC [2] | Meropenem /50µM β-IDACYD MIC (isolate LA-82/16 (VIM, SHV))
16 mg/L: Imipenem /50µM β-IDACYD MIC (isolate L078/11 (KPC)) | Imipenem /50µM β-IDACYD MIC (isolate LAR-40II/15 (KPC))
<0.5 mg/L: Imipenem /50µM β-IDACYD MIC [1]
0.5 mg/L: Imipenem /50µM β-IDACYD MIC (isolate 2489 (NDM)) | Imipenem /50µM β-IDACYD MIC (isolate 2685 (VIM, CMY, CTXM)) | Imipenem /50µM β-IDACYD MIC (isolate IT-17829 (CTXM, SHV)) | Meropenem /50µM β-IDACYD MIC (isolate LA-38 (NDM)) | Meropenem /50µM β-IDACYD MIC [3]
0.125 mg/L: Imipenem /50µM β-IDACYD MIC [3]
64 mg/L: Meropenem /50µM β-IDACYD MIC (isolate L078/11 (KPC)) | Meropenem /50µM β-IDACYD MIC (isolate LAR-40II/15 (KPC))
